Assay results published in US20230242538A1, “PanK Modulators and Methods Using Same” (YALE UNIVERSITY, priority 2020, published 2023).
Like-named read-outs stand apart in the source and are kept apart here.

How the values were obtained:
S. cerevisiae monster = experiment: Growth inhibition of S. cerevisiae monster; format: cell-based; conditions: Saccharomyces cerevisiae; 200 μM of compound (μg/mL equivalent in brackets), VFM medium with no pantothenic acid, 24 h, 10^5 cells/ml
Protocol: In Table 1, “mixed” indicates a compound that is an activator at lower concentrations and is an inhibitor at higher concentrations. % growth inhibition S. cerevisiae monster was determined at 200 μM of compound in VFM medium with no pantothenic acid at 24 h (10^5 cells/ml).

[1] = molecular target: A. fumigatus enzyme (AfPanK) (Aspergillus fumigatus, UniProt Q4WWV3); experiment: Inhibition of A. fumigatus pantothenate kinase (AfPanK); format: biochemical; conditions: read-out: A. fum. IC50
HeLa cells = experiment: General toxicity against HeLa cells, 72 hr; format: cell-based; conditions: for EC50: Homo sapiens, HeLa
Protocol: (§1) Compounds of interest were assayed for their activity as inhibitors of fungal pantothenate kinase (PanK), modulators of human PanK, and general toxicity against HeLa cells.

hPanK3 = hPanK3 (Homo sapiens, UniProt Q9H999); experiment: Modulation of human PanK (hPanK3); format: biochemical; conditions: for IC50: Table 1; for AC50: Table 2, activation
Protocol: as §1

[2] = test system: cab1^ts cells (Saccharomyces cerevisiae JS91.14-24); experiment: Spotting assay on YPD agar, cab1ts yeast; format: cell-based; conditions: 30° C., 48 hours; amorolfine 10 ng/mL, fluconazole 10 μg/mL, terbinafine 10 μg/mL, amphotericin B 1 μg/mL
Description: (§2) Yeast strains (Saccharomyces cerevisiae) used in this study are JS91.15-23 (MATα his3 leu2 trp1 ura3) and JS91.14-24 (MATa ura3 his3 cab1ts) (Olzhausen, et al., 2009, Curr Genet 55, 163-173). Wild type and mutant strains were propagated either in YPD medium (2% bacto-peptone, 2% D-(+)-glucose and 1% yeast extract) or defined pantothenic acid-free (minimal) medium composed of Yeast Nitrogen Base (MP Biomedicals), supplemented with Complete Supplement Mixture (MP Biomedicals) and all vitamins except pantothenic acid. Where indicated, media were supplemented with appropriate concentrations of pantothenic acid.
(§3) Spotting assay were performed as follows. Pre-cultures of WT and cab1^ts yeast strains were prepared in YPD medium overnight at 30° C. Cells were harvested, washed, and diluted to 10^8 cells in 500 μL sterile water. Subsequent serial dilutions were made and 5 μL of cell suspensions were spotted on YPD agar plates lacking or supplemented with amorolfine 10 ng/mL, amphotericin B 1 μg/mL, fluconazole 10 μg/mL or terbinafine 10 μg/mL to achieve 10^6, 10^5, 10^4, 10^3, 10^2, and 10^1 cells per spot. Plates were incubated at 30° C. or 37° C. and imaged every 24 hours. For liquid assay in 96-well plate format, cells were pre-cultured overnight in liquid YPD medium at 30° C., washed three times in water and diluted to achieve 10^4 cells per well in 150 μL of minimal medium supplemented with 1 μM, 10 μM or 100 μM pantothenic acid and either lacking or supplemented with terbinafine (160 μg/ml). All plates were incubated at 30° C. Optical density measurements were taken with a BioTek SynergyMx microplate reader (OD630) every 8 hours for a total of 96 hours. Relative time to mid-log phase was calculated by first graphing growth curves of the varying concentrations of terbinafine for each concentration of pantothenic acid, and then determining the value at which the untreated curve reached saturation, and dividing it by 2 to represent the mid-log value. Dividing the time to mid-log phase of treated cells by the time to mid-log phase of untreated gave the relative time to mid-log phase.

[3] = test system: WT cells (Saccharomyces cerevisiae JS91.15-23); experiment: Spotting assay on YPD agar, WT yeast; format: cell-based; conditions: 30° C., 48 hours; amorolfine 10 ng/mL, fluconazole 10 μg/mL, terbinafine 10 μg/mL, amphotericin B 1 μg/mL
Description: as §2, §3

Cab1 = molecular target: T1, Cab1 (Saccharomyces cerevisiae, UniProt Q04430); experiment: Inhibition of Cab1 pantothenate kinase; format: biochemical
T1 construct: His6; made in house
Protocol: The activity of recombinant His6-tagged Cab1p and cab1^G351S was determined in vitro using the Kinase-Glo Plus Luminescent Kinase (Kinase-Glo) assay as described in Chiu, et al., 2017, Scientific Reports 7:14234. The assay measures the amount of ATP remaining in solution following the kinase reaction. Briefly, kinase buffer consisted of 100 mM Tris-HCl pH 7.4, 10 mM MgCl2, 100 μM pantothenate (PA), 100 μM ATP, and 0.5 mg/mL γ-globulin. Kinase reactions were initiated with the addition of 500 ng of purified Cab1p or Cab1^G351S in elution buffer (10 mM Tris pH 7.4, NaCl 10 mM, 500 mM imidazole). Heat-inactivated (80° C. for 20 min) Cab1p or Cab were used as controls. Samples were incubated at room temperature for 1 hour. At the end of the incubation, an equal volume (10 μL) of Kinase-Glo reagent was added to each sample, the plates were further incubated for 5 min and luminescence was recorded using BioTek SynergyMx microplate reader (excitation wavelength 485; emission wavelength 528).
as §1

[4] = test system: WT cells (Saccharomyces cerevisiae); experiment: Liquid growth assay in minimal medium, WT yeast; format: cell-based; conditions: 100 μM PA, single agent: squalene 100 μg/mL or terbinafine 80 μg/mL
Description: as §2, §3

[5] = Table 1, read-out: EC50 HeLa Tox 72 hr
[6] = Table 2, read-out: EC50 HeLa Tox 72 hr
[7] = read-out: A cer. Cab1 IC50 μM, Table 2

hPanK3, sequence (Q9H999 whole entry): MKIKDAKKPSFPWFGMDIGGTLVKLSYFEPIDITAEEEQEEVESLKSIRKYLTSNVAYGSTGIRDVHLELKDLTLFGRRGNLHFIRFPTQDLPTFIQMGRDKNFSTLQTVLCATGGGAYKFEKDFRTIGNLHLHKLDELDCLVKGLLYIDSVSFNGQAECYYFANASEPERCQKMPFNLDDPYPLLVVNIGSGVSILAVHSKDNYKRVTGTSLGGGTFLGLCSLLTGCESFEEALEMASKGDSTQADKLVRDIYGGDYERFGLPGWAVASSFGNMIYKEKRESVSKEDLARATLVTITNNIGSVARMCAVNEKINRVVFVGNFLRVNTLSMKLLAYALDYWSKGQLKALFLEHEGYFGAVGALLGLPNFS
A. fumigatus enzyme (AfPanK), sequence (Q4WWV3 entry or part of it): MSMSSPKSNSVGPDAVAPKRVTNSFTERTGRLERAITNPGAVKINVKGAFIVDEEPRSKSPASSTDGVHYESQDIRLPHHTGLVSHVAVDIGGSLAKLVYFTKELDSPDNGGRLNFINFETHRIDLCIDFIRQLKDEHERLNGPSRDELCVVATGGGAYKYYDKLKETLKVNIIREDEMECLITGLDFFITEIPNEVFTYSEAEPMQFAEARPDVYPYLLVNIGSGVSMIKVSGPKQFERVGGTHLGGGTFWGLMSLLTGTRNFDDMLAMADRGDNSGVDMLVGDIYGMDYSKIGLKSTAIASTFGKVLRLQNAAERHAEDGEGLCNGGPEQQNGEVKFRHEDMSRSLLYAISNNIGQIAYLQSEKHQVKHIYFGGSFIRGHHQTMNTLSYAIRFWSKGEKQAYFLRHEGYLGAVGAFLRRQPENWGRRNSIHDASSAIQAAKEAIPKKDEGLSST
T1 sequence (Q04430 whole entry): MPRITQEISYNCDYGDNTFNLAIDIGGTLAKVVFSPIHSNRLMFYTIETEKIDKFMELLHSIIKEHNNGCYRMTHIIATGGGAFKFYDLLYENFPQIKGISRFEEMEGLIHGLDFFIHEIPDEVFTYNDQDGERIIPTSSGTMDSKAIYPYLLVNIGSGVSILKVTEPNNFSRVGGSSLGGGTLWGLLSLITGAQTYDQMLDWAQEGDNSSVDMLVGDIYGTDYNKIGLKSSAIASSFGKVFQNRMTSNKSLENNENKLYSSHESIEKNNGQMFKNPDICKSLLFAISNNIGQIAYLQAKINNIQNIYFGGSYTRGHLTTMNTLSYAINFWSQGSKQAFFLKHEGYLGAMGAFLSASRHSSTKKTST

Row | SMILES | inhibition at 200 µM (S. cerevisiae monster) | IC50 ([1]; Table 1) | IC50 (hPanK3) | IC50 ([1]; Table 2) | AC50 (hPanK3) | further results
1 | CC(C)(C)c1ccc(CNc2nc3nc(CN4CCOCC4)cc(Cl)n3n2)cc1 [Compound A16] | 80% | ~100 µM | > 100 µM |  |  | EC50 (HeLa cells; [5]): 2.3 µM
2 | OC(Cn1cncn1)(Cn1cncn1)c1ccc(F)cc1F [fluconazole] |  |  |  |  |  | growth of cab1^ts cells on YPD agar in the presence of the drug [2]: not affected; growth of WT cells on YPD agar in the presence of the drug [3]: greatly reduced
3 | Cc1cc(C(=O)NCC(N)=O)n2nc(NCc3ccc(C(C)(C)C)cc3)nc2n1 [Compound A4] | 62% | 2.4 µM | > 100 µM |  |  | 
4 | Cc1cc(=O)n2nc(NCc3ccc(C(C)C)cc3)nc2[nH]1 [Compound B2, 2-((4-isopropylbenzyl)amino)-5-methyl-[1,2,4]triazolo[1,5-a]pyrimidin-7(4H)-one] |  |  |  | 0.27 µM | 0.0053 µM | EC50 (HeLa cells; [6]): > 100 µM; IC50 (Cab1): > 100 µM
5 | CC(C)(C)c1ccc(CNc2nc3nc(CN4CCOCC4)cc(OCCO)n3n2)cc1 [Compound A12] | 94% | 68 µM |  |  |  | 
6 | CCOc1cc(CN2CCOCC2)nc2nc(NCc3ccc(C(C)(C)C)cc3)nn12 [Compound A15] | 37% | 98 µM |  |  |  | 
7 | COC(=O)CNC(=O)c1cc(C)nc2nc(NCc3ccc(C(C)(C)C)cc3)nn12 [Compound A8] | 67% | > 50 µM | > 100 µM |  |  | 
8 | CN(C)c1cc(CN2CCOCC2)nc2nc(NCc3ccc(C(C)(C)C)cc3)nn12 [Compound B7] |  |  |  | 44 µM | 0.076 µM | EC50 (HeLa cells; [6]): > 100 µM; IC50 (Cab1; [7]): > 100 µM
9 | CC(C)(C)c1ccc(CNc2nc3[nH]c(CN4CCCCC4)cc(=O)n3n2)cc1 [Compound B9] |  |  |  | 1.8 µM | 0.27 µM | EC50 (HeLa cells; [6]): > 100 µM; IC50 (Cab1; [7]): 30 µM
10 | CC(C)=CCC/C(C)=C/CC/C(C)=C/CC/C=C(\C)CC/C=C(\C)CCC=C(C)C [squalene] |  |  |  |  |  | mid-log phase reached at (time) [4]: 34 hours
11 | CC(C)c1ccc(CNc2nc3[nH]c(CN4CCOCC4)cc(=O)n3n2)cc1 [Compound B1, 2-((4-isopropylbenzyl)amino)-5-(morpholinomethyl)-[1,2,4]triazolo[1,5-a]pyrimidin-7(4H)-one] |  |  |  | 0.25 µM | 0.0017 µM | EC50 HeLa Tox 72 hr μM (HeLa cells; Table 2): Inactive; IC50 (Cab1): 0.43 µM
12 | CC(=O)N1CCN(Cc2cc(=O)n3nc(NCc4ccc(C(C)(C)C)cc4)nc3[nH]2)CC1 [Compound A1] | 98% | 0.036 µM |  |  |  | EC50 HeLa Tox 72 hr μM (HeLa cells; Table 1): Inactive
13 | CC(C)(C)c1ccc(CNc2nc3nc(CN4CCOCC4)cc(OCC(N)=O)n3n2)cc1 [Compound A11] | 77% | 62 µM |  |  |  | 
14 | Cc1cc(C(=O)Nc2ccccn2)n2nc(NCc3ccc(C(C)(C)C)cc3)nc2n1 [Compound A7] | 79% | > 50 µM | > 100 µM |  |  | 
15 | Cc1cc(C(=O)NCC(=O)O)n2nc(NCc3ccc(C(C)(C)C)cc3)nc2n1 [Compound A18] | 29% | ~100 µM | > 100 µM |  |  | 
16 | COc1cc(CN2CCOCC2)nc2nc(NCc3ccc(C(C)(C)C)cc3)nn12 [Compound A6] | 34% | 31 µM | > 100 µM |  |  | EC50 (HeLa cells; [5]): > 100 µM
17 | Cc1cc(C(=O)NCc2cccnc2)n2nc(NCc3ccc(C(C)(C)C)cc3)nc2n1 [Compound A17] | 63% | ~100 µM | > 100 µM |  |  | 
18 | CC(C)(C)c1ccc(CNc2nc3nc(CN4CCOCC4)cc(OCC(=O)O)n3n2)cc1 [Compound A14] | 49% | 78 µM |  |  |  | 
19 | CC(C)NCc1cc(=O)n2nc(NCc3ccc(C(C)C)cc3)nc2[nH]1 [Compound A10, 5-((isopropylamino)methyl)-2-((4-isopropylbenzyl)amino)-[1,2,4]triazolo[1,5-a]pyrimidin-7(4H)-one] | 13% | 53 µM |  |  |  | 
20 | CC(C)(C)OC(=O)N1CCN(Cc2cc(=O)n3nc(NCc4ccc(C(C)(C)C)cc4)nc3[nH]2)CC1 [Compound A2] | 87% | 0.083 µM |  |  |  | EC50 HeLa Tox 72 hr μM (HeLa cells; Table 1): Inactive
21 | CCC(C)(C)c1ccc(CC(C)CN2C[C@@H](C)O[C@@H](C)C2)cc1 (stereo partly shown) [amorolfine] |  |  |  |  |  | growth of cab1^ts cells on YPD agar in the presence of the drug [2]: not affected; growth of WT cells on YPD agar in the presence of the drug [3]: completely blocked
22 | CC(C)(C)c1ccc(CNc2nc3[nH]c(CN4CCOCC4)cc(=O)n3n2)cc1 [Compound B6] |  |  |  | 0.26 µM | 0.058 µM | EC50 HeLa Tox 72 hr μM (HeLa cells; Table 2): Inactive; IC50 (Cab1; [7]): 0.19 µM
23 | Cc1cc(C(=O)O)n2nc(NCc3ccc(C(C)(C)C)cc3)nc2n1 [Compound A3] | 87% | 0.086 µM | > 5 µM |  |  | EC50 (HeLa cells; [5]): > 100 µM
24 | Cc1cc(C(=O)NCCO)n2nc(NCc3ccc(C(C)(C)C)cc3)nc2n1 [Compound A9] | 102% | > 50 µM | > 100 µM |  |  | 
25 | CN1CCN(Cc2cc(=O)n3nc(NCc4ccc(C(C)(C)C)cc4)nc3[nH]2)CC1 [Compound B8] |  |  |  | 0.89 µM | 0.16 µM | EC50 HeLa Tox 72 hr μM (HeLa cells; Table 2): Inactive; IC50 (Cab1; [7]): 0.55 µM
26 | CNc1cc(CN2CCOCC2)nc2nc(NCc3ccc(C(C)(C)C)cc3)nn12 [Compound B5] |  |  |  | 28 µM | 0.038 µM | EC50 (HeLa cells; [6]): > 100 µM; IC50 (Cab1; [7]): 9.4 µM
27 | CN1CCN(Cc2cc(=O)n3nc(-c4ccc(C(C)(C)C)cc4)nc3[nH]2)CC1 [Compound A5, 2-(4-(tert-butyl)phenyl)-5-((4-methylpiperazin-1-yl)methyl)-[1,2,4]triazolo[1,5-a]pyrimidin-7(4H)-one] | 86% | 5.5 µM | > 100 µM |  |  | EC50 HeLa Tox 72 hr μM (HeLa cells; Table 1): Inactive
28 | CC(C)c1ccc(CNc2nc3[nH]c(CN4CCCC4)cc(=O)n3n2)cc1 [Compound B4, 2-((4-isopropylbenzyl)amino)-5-(pyrrolidin-1-ylmethyl)-[1,2,4]triazolo[1,5-a]pyrimidin-7(4H)-one] |  |  |  | 11 µM | 0.032 µM | EC50 HeLa Tox 72 hr μM (HeLa cells; Table 2): Inactive; IC50 (Cab1): > 100 µM
29 | CC(C)(C)c1ccc(CNc2nc3nc(CN4CCOCC4)cc(N)n3n2)cc1 [Compound A13] | 25% | 71 µM |  |  |  | EC50 (HeLa cells; [5]): > 100 µM
30 | Cc1ccccc1-c1nc2[nH]c(CNc3ccccc3)cc(=O)n2n1 [Compound B3, 5-((phenylamino)methyl)-2-(o-tolyl)-[1,2,4]triazolo[1,5-a]pyrimidin-7(4H)-one] |  |  |  | 10 µM | 0.024 µM | EC50 HeLa Tox 72 hr μM (HeLa cells; Table 2): Inactive; IC50 (Cab1): > 100 µM
